Key:
[1] = test system: recombinant NL4-3 virus (nef section replaced with Renilla luciferase gene) in MT-2 cells; test: HIV cell culture assay (antiviral activity, luciferase readout); type: cell-based; settings: Renilla, NL43
Summary of the method: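 MT-2 cells were infected for 4-5 days with 293T-derived NL4-3 Renilla-luciferase reporter virus in the presence of serial compound dilutions. Luciferase was read with EnduRen live-cell substrate. EC50 was fitted with the median effect equation.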

[2] = Compound cytotoxicity, XTT-based colorimetric assay; type: cell-based; settings: human; uninfected MT2 cells, day 4, XTT-based colorimetric assay
Summary of the method: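 Run under the antiviral-assay protocol but without virus. Viability was read on day 4 and CC50 values were derived from the readout.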

In the case of `Cn1nc(NS(C)(=O)=O)c2c(Cl)ccc(-n3c([C@H](Cc4cc(F)cc(F)c4)NC(=O)Cn4nc(C(F)F)c5c4C(F)(F)[C@@H]4C[C@H]54)nc(-c4cccc(C(F)(F)F)n4)cc3=O)c21` (atropisomer, axis not shown; (P)) [Example 7, N-((S)-1-((1P)-1-(4-chloro-1-methyl-3-(methylsulfonamido)-1H-indazol-7-yl)-6-oxo-4-(6-(trifluoromethyl)pyridin-2-yl)-1,6-dihydropyrimidin-2-yl)-2-(3,5-difluorophenyl)ethyl)-2-((3bS,4aR)-3-(difluoromethyl)-5,5-difluoro-3b,4,4a,5-tetrahydro-1H-cyclopropa[3,4]cyclopenta[1,2-c]pyrazol-1-yl)acetamide], the EC50 [1] is reported as 0.53 nM and the CC50 at 4 days [2] is reported as > 100 nM.

With `CCOc1ccc(-c2cc(=O)n(-c3ccc(Cl)c4c(NS(C)(=O)=O)nn(C)c34)c([C@H](Cc3cc(F)cc(F)c3)NC(=O)Cn3nc(C(F)F)c4c3C(F)(F)[C@@H]3C[C@H]43)n2)cn1` (atropisomer, axis not shown; (P)) [Example 22, N-((S)-1-((1P)-1-(4-chloro-1-methyl-3-(methylsulfonamido)-1H-indazol-7-yl)-4-(6-ethoxypyridin-3-yl)-6-oxo-1,6-dihydropyrimidin-2-yl)-2-(3,5-difluorophenyl)ethyl)-2-((3bS,4aR)-3-(difluoromethyl)-5,5-difluoro-3b,4,4a,5-tetrahydro-1H-cyclopropa[3,4]cyclopenta[1,2-c]pyrazol-1-yl)acetamide] the EC50 [1] was 0.46 nM and the CC50 at 4 days [2] was > 100 nM.

In the case of `CCc1cnc(-c2cc(=O)n(-c3ccc(Cl)c4c(NS(=O)(=O)C5CC5)nn(CC(F)F)c34)c([C@H](Cc3cc(F)cc(F)c3)NC(=O)Cn3nc(C(F)F)c4c3C(F)(F)[C@@H]3C[C@H]43)n2)nc1` (atropisomer, axis not shown; (aR)) [Example 39, N-((S)-1-((1′P)-1′-(4-chloro-3-(cyclopropanesulfonamido)-1-(2,2-difluoroethyl)-1H-indazol-7-yl)-5-ethyl-6′-oxo-1′,6′-dihydro-[2,4′-bipyrimidin]-2′-yl)-2-(3,5-difluorophenyl)ethyl)-2-((3bS,4aR)-3-(difluoromethyl)-5,5-difluoro-3b,4,4a,5-tetrahydro-1H-cyclopropa[3,4]cyclopenta[1,2-c]pyrazol-1-yl)acetamide], the EC50 [1] is reported as 0.059 nM and the CC50 at 4 days [2] is reported as > 100 nM.

In the case of `O=C(Cn1nc(C(F)(F)F)c2c1C(F)(F)[C@@H]1C[C@H]21)N[C@@H](Cc1cc(F)cc(F)c1)c1nc(-c2nccc(C(F)F)n2)cc(=O)n1-c1ccc(Cl)c2c(NS(=O)(=O)C3CC3)nn(CC(F)F)c12` (atropisomer, axis not shown; (aR)) [Example 32, N-((S)-1-((1′P)-1′-(4-chloro-3-(cyclopropanesulfonamido)-1-(2,2-difluoroethyl)-1H-indazol-7-yl)-4-(difluoromethyl)-6′-oxo-1′,6′-dihydro-[2,4′-bipyrimidin]-2′-yl)-2-(3,5-difluorophenyl)ethyl)-2-((3bS,4aR)-5,5-difluoro-3-(trifluoromethyl)-3b,4,4a,5-tetrahydro-1H-cyclopropa[3,4]cyclopenta[1,2-c]pyrazol-1-yl)acetamide], the EC50 [1] is reported as 0.3 nM and the CC50 at 4 days [2] is reported as > 100 nM.

For `Cn1nc(C(F)(F)F)cc1-c1cc(=O)n(-c2ccc(Cl)c3c(NS(C)(=O)=O)nn(C)c23)c([C@H](Cc2cc(F)cc(F)c2)NC(=O)Cn2nc(C(F)F)c3c2C(F)(F)[C@@H]2C[C@H]32)n1` (atropisomer, axis not shown; (P)) [Example 19, N-((S)-1-((1P)-1-(4-chloro-1-methyl-3-(methylsulfonamido)-1H-indazol-7-yl)-4-(1-methyl-3-(trifluoromethyl)-1H-pyrazol-5-yl)-6-oxo-1,6-dihydropyrimidin-2-yl)-2-(3,5-difluorophenyl)ethyl)-2-((3bS,4aR)-3-(difluoromethyl)-5,5-difluoro-3b,4,4a,5-tetrahydro-1H-cyclopropa[3,4]cyclopenta[1,2-c]pyrazol-1-yl)acetamide], the EC50 [1] was 0.74 nM and the CC50 at 4 days [2] was > 100 nM.

In the case of `O=C(Cn1nc(C(F)(F)F)c2c1C(F)(F)[C@@H]1C[C@H]21)N[C@@H](Cc1cc(F)cc(F)c1)c1nc(-c2nccc(C(F)(F)F)n2)cc(=O)n1-c1ccc(Cl)c2c(NS(=O)(=O)C3CC3)nn(CC(F)F)c12` [Example 26, N-((S)-1-((1′P)-1′-(4-chloro-3-(cyclopropanesulfonamido)-1-(2,2-difluoroethyl)-1H-indazol-7-yl)-6′-oxo-4-(trifluoromethyl)-1′,6′-dihydro-[2,4′-bipyrimidin]-2′-yl)-2-(3,5-difluorophenyl)ethyl)-2-((3bS,4aR)-5,5-difluoro-3-(trifluoromethyl)-3b,4,4a,5-tetrahydro-1H-cyclopropa[3,4]cyclopenta[1,2-c]pyrazol-1-yl)acetamide], the EC50 [1] is reported as 0.11 nM and the CC50 at 4 days [2] is reported as > 100 nM.

For `Cn1nc(NS(C)(=O)=O)c2c(Cl)ccc(-n3c([C@H](Cc4cc(F)cc(F)c4)NC(=O)Cn4nc(C(F)F)c5c4C(F)(F)[C@@H]4C[C@H]54)nc(-c4ccc(Cl)cn4)cc3=O)c21` (atropisomer, axis not shown; (P)) [Example 24, N-((S)-1-((1P)-1-(4-chloro-1-methyl-3-(methylsulfonamido)-1H-indazol-7-yl)-4-(5-chloropyridin-2-yl)-6-oxo-1,6-dihydropyrimidin-2-yl)-2-(3,5-difluorophenyl)ethyl)-2-((3bS,4aR)-3-(difluoromethyl)-5,5-difluoro-3b,4,4a,5-tetrahydro-1H-cyclopropa[3,4]cyclopenta[1,2-c]pyrazol-1-yl)acetamide], the EC50 [1] was 0.37 nM and the CC50 at 4 days [2] was > 100 nM.

With `CC(F)(F)Cn1ccc(-c2cc(=O)n(-c3ccc(Cl)c4c(NS(=O)(=O)C5CC5)nn(CC(F)F)c34)c([C@H](Cc3cc(F)cc(F)c3)NC(=O)Cn3nc(C(F)F)c4c3C(F)(F)[C@@H]3C[C@H]43)n2)n1` (atropisomer, axis not shown; (P)) [Example 42, N-((S)-1-((1P)-1-(4-chloro-3-(cyclopropanesulfonamido)-1-(2,2-difluoroethyl)-1H-indazol-7-yl)-4-(1-(2,2-difluoropropyl)-1H-pyrazol-3-yl)-6-oxo-1,6-dihydropyrimidin-2-yl)-2-(3,5-difluorophenyl)ethyl)-2-((3bS,4aR)-3-(difluoromethyl)-5,5-difluoro-3b,4,4a,5-tetrahydro-1H-cyclopropa[3,4]cyclopenta[1,2-c]pyrazol-1-yl)acetamide] the EC50 [1] was 0.21 nM and the CC50 at 4 days [2] was > 100 nM.

In the case of `COC(C)(C)C#Cc1cc(=O)n(-c2ccc(Cl)c3c(NS(C)(=O)=O)nn(C)c23)c([C@H](Cc2cc(F)cc(F)c2)NC(=O)Cn2nc(C(F)F)c3c2C(F)(F)[C@@H]2C[C@H]32)n1` (atropisomer, axis not shown; (P)) [Example 9, N-((S)-1-((1P)-1-(4-chloro-1-methyl-3-(methylsulfonamido)-1H-indazol-7-yl)-4-(3-methoxy-3-methylbut-1-yn-1-yl)-6-oxo-1,6-dihydropyrimidin-2-yl)-2-(3,5-difluorophenyl)ethyl)-2-((3bS,4aR)-3-(difluoromethyl)-5,5-difluoro-3b,4,4a,5-tetrahydro-1H-cyclopropa[3,4]cyclopenta[1,2-c]pyrazol-1-yl)acetamide], the EC50 [1] is reported as 0.04 nM and the CC50 at 4 days [2] is reported as > 100 nM.

With `COC(C)(C)C#Cc1cc(=O)n(-c2ccc(Cl)c3c(NS(=O)(=O)C4CC4)nn(CC(F)F)c23)c([C@H](Cc2cc(F)cc(F)c2)NC(=O)Cn2nc(C(F)(F)F)c3c2C(F)(F)[C@@H]2C[C@H]32)n1` (atropisomer, axis not shown; (P)) [Example 45, N-((S)-1-((1P)-1-(4-chloro-3-(cyclopropanesulfonamido)-1-(2,2-difluoroethyl)-1H-indazol-7-yl)-4-(3-methoxy-3-methylbut-1-yn-1-yl)-6-oxo-1,6-dihydropyrimidin-2-yl)-2-(3,5-difluorophenyl)ethyl)-2-((3bS,4aR)-5,5-difluoro-3-(trifluoromethyl)-3b,4,4a,5-tetrahydro-1H-cyclopropa[3,4]cyclopenta[1,2-c]pyrazol-1-yl)acetamide] the EC50 [1] was 0.12 nM and the CC50 at 4 days [2] was > 100 nM.

With `O=C(Cn1nc(C(F)F)c2c1C(F)(F)[C@@H]1C[C@H]21)N[C@@H](Cc1cc(F)cc(F)c1)c1nc(-c2ncc(F)cn2)cc(=O)n1-c1ccc(Cl)c2c(NS(=O)(=O)C3CC3)nn(CC(F)F)c12` (atropisomer, axis not shown; (aR)) [Example 30, N-((S)-1-((1′P)-1′-(4-chloro-3-(cyclopropanesulfonamido)-1-(2,2-difluoroethyl)-1H-indazol-7-yl)-5-fluoro-6′-oxo-1′,6′-dihydro-[2,4′-bipyrimidin]-2′-yl)-2-(3,5-difluorophenyl)ethyl)-2-((3bS,4aR)-3-(difluoromethyl)-5,5-difluoro-3b,4,4a,5-tetrahydro-1H-cyclopropa[3,4]cyclopenta[1,2-c]pyrazol-1-yl)acetamide] the EC50 [1] was 0.2 nM and the CC50 at 4 days [2] was > 100 nM.

In the case of `O=C(Cn1nc(C(F)F)c2c1C(F)(F)[C@@H]1C[C@H]21)N[C@@H](Cc1cc(F)cc(F)c1)c1nc(-c2cccc(F)n2)cc(=O)n1-c1ccc(Cl)c2c(NS(=O)(=O)C3CC3)nn(CC(F)F)c12` (atropisomer, axis not shown; (P)) [Example 28, N-((S)-1-((1P)-1-(4-chloro-3-(cyclopropanesulfonamido)-1-(2,2-difluoroethyl)-1H-indazol-7-yl)-4-(6-fluoropyridin-2-yl)-6-oxo-1,6-dihydropyrimidin-2-yl)-2-(3,5-difluorophenyl)ethyl)-2-((3bS,4aR)-3-(difluoromethyl)-5,5-difluoro-3b,4,4a,5-tetrahydro-1H-cyclopropa[3,4]cyclopenta[1,2-c]pyrazol-1-yl)acetamide], the EC50 [1] is reported as 0.39 nM and the CC50 at 4 days [2] is reported as > 100 nM.
